We go through 26 compounds from patent US9914730B2, “Azaquinazoline inhibitors of Atypical protein Kinase C” (Ignyta, Inc., priority 2012, dated 2018).

What is called IC50 is the concentration that gives 50% inhibition.

This assay has as its target T1, full-length human PKCι (Homo sapiens, UniProt P41743).
T1 construct: Recombinant, full-length human PKCι expressed in Sf21 insect cells is also commercially available; purchased; host or cells: Sf21 insect cells
T1 sequence (P41743 1-596): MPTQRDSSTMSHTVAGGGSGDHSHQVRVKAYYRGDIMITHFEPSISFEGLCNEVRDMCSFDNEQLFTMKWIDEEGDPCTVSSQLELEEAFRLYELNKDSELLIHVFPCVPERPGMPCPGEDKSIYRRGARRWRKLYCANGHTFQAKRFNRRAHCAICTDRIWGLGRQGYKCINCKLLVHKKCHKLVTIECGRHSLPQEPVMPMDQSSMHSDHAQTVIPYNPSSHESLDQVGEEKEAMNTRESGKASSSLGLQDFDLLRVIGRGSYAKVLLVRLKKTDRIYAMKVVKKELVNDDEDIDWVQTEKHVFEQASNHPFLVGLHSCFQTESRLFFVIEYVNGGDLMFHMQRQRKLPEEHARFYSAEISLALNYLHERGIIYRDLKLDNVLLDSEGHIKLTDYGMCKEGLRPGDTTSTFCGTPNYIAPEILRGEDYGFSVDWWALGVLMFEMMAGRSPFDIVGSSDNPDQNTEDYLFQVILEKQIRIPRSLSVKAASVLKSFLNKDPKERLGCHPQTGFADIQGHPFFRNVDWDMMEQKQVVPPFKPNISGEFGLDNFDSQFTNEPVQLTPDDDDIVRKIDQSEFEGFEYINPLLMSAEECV
Description: PKCι IC50 IMAP assay, full-length PKCι at 150 μM ATP. It is filed as biochemical. The settings on record: read-out: IC50 in IMAP assay against full length PKCi at 150 μM ATP. Summed up:
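Dose-response IC50 values come from IMAP fluorescence polarisation after 60 min room-temperature turnover of 100 nM FAM peptide by ~15 pM insect-cell-expressed full-length PKCι at 150 μM ATP (5× KM^APP), normalised to no-compound and no-enzyme controls.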
With `FC(F)(F)c1ccc(Nc2cc(-c3nc(N4CCNCC4)c4c(C5CCC5)cncc4n3)ccn2)nc1` [Example 809, [4-(5-Cyclobutyl-4-piperazin-1-yl-pyrido[3,4-d]pyrimidin-2-yl)-pyridin-2-yl]-(5-trifluoromethyl-pyridin-2-yl)-amine], the IC50 was under 100 nM. The same measure for `C[C@@H](Nc1cc(-c2nc(N3CCNCC3)c3c(C4CC4)cncc3n2)ccn1)C1CC1` [Example 810, ((R)-1-Cyclopropyl-ethyl)-[4-(5-cyclopropyl-4-piperazin-1-yl-pyrido[3,4-d]pyrimidin-2-yl)-pyridin-2-yl]-amine]: under 100 nM.

Take `C[C@@H](Nc1cc(-c2nc(N3CCNCC3)c3c(C4CC4)cncc3n2)ccn1)C1CCCCC1` [Example 811, ((R)-1-Cyclohexyl-ethyl)-[4-(5-cyclopropyl-4-piperazin-1-yl-pyrido[3,4-d]pyrimidin-2-yl)-pyridin-2-yl]-amine]: the half-inhibitory concentration (IC50) is under 100 nM.

Regarding `Fc1cc(C2CC2)cnc1Nc1cc(-c2nc(N3CCNCC3)c3c(C4CC4)cncc3n2)ccn1` [Example 812, (5-Cyclopropyl-3-fluoro-pyridin-2-yl)-[4-(5-cyclopropyl-4-piperazin-1-yl-pyrido[3,4-d]pyrimidin-2-yl)-pyridin-2-yl]-amine], the IC50 is under 100 nM. Turning to `CC(C)(C)C(=O)N1CCC(Nc2cc(-c3nc(N4CCNCC4)c4c(C5CC5)cncc4n3)ccn2)CC1` [Example 813, 1-{4-[4-(5-Cyclopropyl-4-piperazin-1-yl-pyrido[3,4-d]pyrimidin-2-yl)-pyridin-2-ylamino]-piperidin-1-yl}-2,2-dimethyl-propan-1-one], the half-maximal inhibitory concentration (IC50) was under 100 nM. The same measure for `FC(F)(F)CN1CCC(Nc2cc(-c3nc(N4CCNCC4)c4c(C5CC5)cncc4n3)ccn2)CC1` [Example 814, [4-(5-Cyclopropyl-4-piperazin-1-yl-pyrido[3,4-d]pyrimidin-2-yl)-pyridin-2-yl]-[1-(2,2,2-trifluoro-ethyl)-piperidin-4-yl]-amine]: under 100 nM; for `CC1(C)CN(c2nc(-c3ccnc(Nc4nc(F)c(F)cc4F)c3)nc3cncc(C4CC4)c23)CCN1` [Example 815, {4-[5-Cyclopropyl-4-(3,3-dimethyl-piperazin-1-yl)-pyrido[3,4-d]pyrimidin-2-yl]-pyridin-2-yl}-(3,5,6-trifluoro-pyridin-2-yl)-amine]: under 100 nM. Turning to `CS(=O)(=O)N1CCC(Nc2cc(-c3nc(N4CCNCC4)c4c(C5CC5)cncc4n3)ccn2)CC1` [Example 816, [4-(5-Cyclopropyl-4-piperazin-1-yl-pyrido[3,4-d]pyrimidin-2-yl)-pyridin-2-yl]-(1-methanesulfonyl-piperidin-4-yl)-amine], the concentration for half-maximal inhibition (IC50) is under 100 nM. The same measure for `Fc1ccccc1-n1cc(Nc2cc(-c3nc(N4CCNCC4)c4c(C5CC5)cncc4n3)ccn2)cn1` [Example 817, [4-(5-Cyclopropyl-4-piperazin-1-yl-pyrido[3,4-d]pyrimidin-2-yl)-pyridin-2-yl]-[1-(2-fluoro-phenyl)-1H-pyrazol-4-yl]-amine]: under 100 nM; for `Fc1cccc(F)c1-n1cc(Nc2cc(-c3nc(N4CCNCC4)c4c(C5CC5)cncc4n3)ccn2)cn1` [Example 818, [4-(5-Cyclopropyl-4-piperazin-1-yl-pyrido[3,4-d]pyrimidin-2-yl)-pyridin-2-yl]-[1-(2,6-difluoro-phenyl)-1H-pyrazol-4-yl]-amine]: under 100 nM; for `Fc1cc(F)c(-n2cc(Nc3cc(-c4nc(N5CCNCC5)c5c(C6CC6)cncc5n4)ccn3)cn2)c(F)c1` [Example 820, [4-(5-Cyclopropyl-4-piperazin-1-yl-pyrido[3,4-d]pyrimidin-2-yl)-pyridin-2-yl]-[1-(2,4,6-trifluoro-phenyl)-1H-pyrazol-4-yl]-amine]: under 100 nM. Next, `CN1Cc2ccc(Nc3cc(-c4nc(N5CCC(O)CC5)c5c(C6CC6)cncc5n4)ccn3)cc2C1` [Example 821, 1-{5-Cyclopropyl-2-[2-(2-methyl-2,3-dihydro-1H-isoindol-5-ylamino)-pyridin-4-yl]-pyrido[3,4-d]pyrimidin-4-yl}-piperidin-4-ol]: under 100 nM. The same measure for `NC(=O)c1cc(F)c(Nc2cc(-c3nc(N4CCNCC4)c4c(C5CC5)cncc4n3)ccn2)c(F)c1` [Example 822, 4-[4-(5-Cyclopropyl-4-piperazin-1-yl-pyrido[3,4-d]pyrimidin-2-yl)-pyridin-2-ylamino]-3,5-difluoro-benzamide]: 1000 to 10000 nM; for `c1cc(-c2nc(N3CCNCC3)c3c(C4CC4)cncc3n2)cc(N[C@H]2C[C@@H]3CC[C@H]2C3)n1` [Example 823, (1S,2S,4R)-Bicyclo[2.2.1]hept-2-yl-[4-(5-cyclopropyl-4-piperazin-1-yl-pyrido[3,4-d]pyrimidin-2-yl)-pyridin-2-yl]-amine]: under 100 nM; for `c1cc(-c2nc(N3CCNCC3)c3c(C4CC4)cncc3n2)cc(N[C@@H]2C[C@H]3CC[C@@H]2C3)n1` [Example 824, (1R,2R,4S)-Bicyclo[2.2.1]hept-2-yl-[4-(5-cyclopropyl-4-piperazin-1-yl-pyrido[3,4-d]pyrimidin-2-yl)-pyridin-2-yl]-amine]: under 100 nM. Regarding `c1cc(C2CC2)n2nc(Nc3cc(-c4nc(N5CCNCC5)c5c(C6CC6)cncc5n4)ccn3)nc2c1` [Example 825, [4-(5-Cyclopropyl-4-piperazin-1-yl-pyrido[3,4-d]pyrimidin-2-yl)-pyridin-2-yl]-(5-cyclopropyl-[1,2,4]triazolo[1,5-a]pyridin-2-yl)-amine], the IC50 is under 100 nM. Next, `CN(C)CCOc1nc(-c2ccnc(Nc3c(F)cccc3F)c2)nc2cncc(C3CC3)c12` [Example 826, {4-[5-Cyclopropyl-4-(2-dimethylamino-ethoxy)-pyrido[3,4-d]pyrimidin-2-yl]-pyridin-2-yl}-(2,6-difluoro-phenyl)-amine]: 100 to 1000 nM; `FC(F)(F)c1ccc(Nc2cc(-c3nc(N4CCNCC4)c4c(C5CC5)cncc4n3)ccn2)nc1` [Example 827, [4-(5-Cyclopropyl-4-piperazin-1-yl-pyrido[3,4-d]pyrimidin-2-yl)-pyridin-2-yl]-(5-trifluoromethyl-pyridin-2-yl)-amine]: under 100 nM. Next, `C[C@@H]1CN(c2nc(-c3ccnc(Nc4nc(F)c(F)cc4F)c3)nc3cncc(C4CC4)c23)C[C@H](C)N1` [Example 828, {4-[5-Cyclopropyl-4-((3R,5S)-3,5-dimethyl-piperazin-1-yl)-pyrido[3,4-d]pyrimidin-2-yl]-pyridin-2-yl}-(3,5,6-trifluoro-pyridin-2-yl)-amine]: under 100 nM; `Fc1cccc(F)c1Nc1cc(-c2nc(N3CCNC4(CC4)C3)c3c(C4CC4)cncc3n2)ccn1` [Example 829, {4-[5-Cyclopropyl-4-(4,7-diaza-spiro[2.5]oct-7-yl)-pyrido[3,4-d]pyrimidin-2-yl]-pyridin-2-yl}-(2,6-difluoro-phenyl)-amine]: under 100 nM.

Regarding `C[C@H]1CN(c2nc(-c3ccnc(Nc4nc(F)c(F)cc4F)c3)nc3cncc(C4CC4)c23)CCN1` [Example 830, {4-[5-Cyclopropyl-4-((S)-3-methyl-piperazin-1-yl)-pyrido[3,4-d]pyrimidin-2-yl]-pyridin-2-yl}-(3,5,6-trifluoro-pyridin-2-yl)-amine], the half-inhibitory concentration (IC50) lay in the range of 1000 to 10000 nM.

With `c1cc(-c2nc(N3CCNCC3)c3c(C4CC4)cncc3n2)cc(Nc2nc3cc(C4CC4)ccn3n2)n1` [Example 831, [4-(5-Cyclopropyl-4-piperazin-1-yl-pyrido[3,4-d]pyrimidin-2-yl)-pyridin-2-yl]-(7-cyclopropyl-[1,2,4]triazolo[1,5-a]pyridin-2-yl)-amine], the concentration for half-maximal inhibition (IC50) is under 100 nM. Next, `Cn1ccc(Nc2cc(-c3nc(N4CCNC(C)(C)C4)c4c(C5CC5)cncc4n3)ccn2)n1` [Example 832, {4-[5-Cyclopropyl-4-(3,3-dimethyl-piperazin-1-yl)-pyrido[3,4-d]pyrimidin-2-yl]-pyridin-2-yl}-(1-methyl-1H-pyrazol-3-yl)-amine]: under 100 nM; `CN(c1nc(-c2ccnc(Nc3c(F)cccc3F)c2)nc2cncc(C3CC3)c12)C1CCNCC1` [Example 833, {5-Cyclopropyl-2-[2-(2,6-difluoro-phenylamino)-pyridin-4-yl]-pyrido[3,4-d]pyrimidin-4-yl}-methyl-piperidin-4-yl-amine]: under 100 nM. Next, `OC1CCN(c2nc(-c3ccnc(Nc4cccc(N5CCOCC5)c4)c3)nc3cncc(C4CC4)c23)CC1` [Example 834, 1-{5-Cyclopropyl-2-[2-(3-morpholin-4-yl-phenylamino)-pyridin-4-yl]-pyrido[3,4-d]pyrimidin-4-yl}-piperidin-4-ol]: under 100 nM; `C[C@@H](Nc1cc(-c2nc(N3CCNC(C)(C)C3)c3c(C4CC4)cncc3n2)ccn1)C1CCCCC1` [Example 835, ((R)-1-Cyclohexyl-ethyl)-{4-[5-cyclopropyl-4-(3,3-dimethyl-piperazin-1-yl)-pyrido[3,4-d]pyrimidin-2-yl]-pyridin-2-yl}-amine]: under 100 nM.
